# Assay results as given in patent US20020143064A1, “Novel use of compounds of the chalcones class” (priority 2000, published 2002).
# Tested on: HDMEC cells (Human Dermal Microvascular Endothelial Cells)
# Assay: Detachment of endothelial cells in vitro (HDMEC detachment test)
# Type: cell-based
# Details: Endothelial cell, 2 h, 1 μM compound, two hours treatment, plates precoated with fibronectin, vitronectin or gelatin, calcein fluorescence, relative to untreated control, mean of six samples, >=15% regarded as significant, read-out: Percentage of detachment of HDMEC cells induced by 1 μM of compound
# Experimental: A test for the determination of the detachment of endothelial cells has been developed in order to select products with respect to their “in vitro” activity. Such test was employed in the present invention. By way of this test, the endothelial cells were inoculated in plates, the bottom of which were covered with at least one binding agent, for example, chosen from gelatin, fibronectin, and vitronectin. The inoculated endothelial cells were then cultured. The cultured endothelial cells were treated with a medium comprising the test compound. The cells were then labeled with a fluorescent substance. The detached cells were removed by washing; and the fluorescence of the remaining cells was counted with a fluorimeter.
# This test measures the detachment of endothelial cells cultured on substrata based on at least one binding agent, for example, chosen from fibronectin, vitronectin, and gelatin. Generally, one day after the cells were seeded in plates, which comprised, for example, 96 wells, the culture medium was replaced by a medium, which comprised the test compound in the absence of serum. The same preparation was prepared six times at three different concentrations ([…]) and the control was prepared six times without addition of antivascular product. After the cells were treated for two hours with the test substance, the cells were labeled with calcein AM (1.6 μg/ml) in culture medium supplemented with 0.1% of BSA. The cells that detached were removed by washing with culture medium comprising 0.1% of bovine serum albumin. 100 μl of medium were then added to each well. The fluorescence of the remaining cells was counted with a fluorimeter. The data obtained is expressed with respect to the control (untreated cells).
# The evaluation of the detachment of endothelial cells in vitro was determined in the following way: HDMEC cells (Human Dermal Microvascular Endothelial Cells, Promocell, c-122102) were cultured in an ECGM-MV medium which comprised 5% of foetal calf serum, growth factors (EGF 10 ng/ml, hydrocortisone 1 μg/ml, 0.4% growth supplement with heparin) and antibiotics (amphotericin 50 ng/ml, gentamicin 50 μg/ml). For the detachment test, the HDMECs were inoculated at 5000 cells in clear-bottomed 96-well plates (Costar) precoated with fibronectin (10 μg/ml) or vitronectin (1 μg/ml) or gelatin. Twenty four hours later, the culture medium was replaced with ECGM-MV 0.1% BSA medium comprising the products shown. The concentrations tested were 0.1, 0.3 and 1 μM for each product. After treating for two hours, the cells were labeled for one hour with calcein (1.6 μg/ml, Molecular Probes) in ECGM-MV 0.1% BSA medium. The detached cells were subsequently removed by washing with ECGM-MV 0.1% BSA medium; 100 μl of medium was added to each well. The fluorescence of the cells which remained attached to the substratum of the well were counted using a fluorimeter, Spectrafluor Plus (Tecan, excitation 485 nm and emission 535 nm).
# A cell detachment effect of greater than or equal to 15% is regarded as significant.
row,Structure (SMILES),inhibition at 1 µM
1,"COc1ccc(OC)c(C(=O)/C=C/c2ccc(NC(C)=O)cc2)c1 [Comparative Example 1, reference compound]",2%
2,"CCCCNc1ccc(/C=C(\C)C(=O)c2cc(OC)c(OC)c(OC)c2)cc1 [Comparative Example 2, reference compound]",6%
3,COc1ccc(OC)c(C(=O)/C(C)=C/c2ccc(N(C)C)cc2)c1 [Example 1],23 to 49%
4,CCN(CC)c1ccc(/C=C(\C)C(=O)c2cc(OC)ccc2OC)cc1 [Example 2],20 to 23%
5,COc1ccc(OC)c(C(=O)/C(Cl)=C/c2ccc(N(C)C)cc2)c1 [Example 3],25 to 29%
6,COc1ccc(OC)c(C(=O)/C=C/c2ccc(N(C)C)cc2)c1 [Example 4],18 to 19%
7,COc1cc(C(=O)/C(C)=C/c2ccc(N(C)C)cc2)cc(OC)c1OC [Example 5],15%
8,CCN(CC)c1ccc(/C=C(\C)C(=O)c2ccc(OC)c(OC)c2OC)cc1 [Example 6],35 to 41%
9,COc1ccc(C(=O)/C(Cl)=C/c2ccc(N(C)C)cc2)c(OC)c1OC [Example 7],22 to 42%
10,COc1cc(C(=O)/C(Cl)=C/c2ccc(N(C)C)cc2)cc(OC)c1OC [Example 8],23 to 43%
11,CCN(CC)c1ccc(/C=C/C(=O)c2ccc(OC)c(OC)c2OC)cc1 [Example 9],19%
12,CC/C(=C\c1ccc(N(C)C)cc1)C(=O)c1ccc(OC)c(OC)c1OC [Example 10],15%
13,CCN(CC)c1ccc(/C=C/C(=O)c2cc(OC)c(OC)c(OC)c2)cc1 [Example 11],20%
14,COc1ccc(C(=O)/C(Br)=C/c2ccc(N(C)C)cc2)c(OC)c1OC [Example 13],23 to 34%
15,COc1ccc(C(=O)/C=C/c2ccc(N(C)C)cc2)c(OC)c1OC [Example 14],18 to 20%
